One experiment concerns Alternaria brassicae. As to the kind of experiment: In vivo test on Alternaria brassicae (leaf spot of crucifers). The following applies: radish plants (Pernot variety), preventive spray at 330 ppm, contamination after 24 hours, grading 6 to 7 days after contamination vs control plants. Here is the method: (§1) The active ingredients tested are prepared by potter homogenisation in a mixture of acetone/tween/water. This suspension is then diluted with water to obtain the desired active material concentration.
Radish plants (Pernot variety), sown on a 50/50 peat soil-pozzolana substrate in starter cups and grown at 18-20° C., are treated at the cotyledon stage by spraying with the active ingredient prepared as described above.
Plants, used as controls, are treated with the mixture of acetone/tween/water not containing the active material.
After 24 hours, the plants are contaminated by spraying them with an aqueous suspension of Alternaria brassicae spores (40,000 spores per cm^3). The spores are collected from a 12 to 13 days-old culture.
The contaminated radish plants are incubated for 6-7 days at about 18° C., under a humid atmosphere.
Grading is carried out 6 to 7 days after the contamination, in comparison with the control plants.

For another experiment, the system named is Pyrenophora teres. As to the kind of experiment: In vivo test on Pyrenophora teres (barley net blotch). The following applies: barley plants (Express variety), preventive spray at 330 ppm, contamination after 24 hours, grading 12 days after contamination vs control plants. Here is the method: as §1
Barley plants (Express variety), sown on a 50/50 peat soil-pozzolana substrate in starter cups and grown at 12° C., are treated at the 1-leaf stage (10 cm tall) by spraying with the active ingredient prepared as described above. Plants, used as controls, are treated with the mixture of acetone/tween/water not containing the active material.
After 24 hours, the plants are contaminated by spraying them with an aqueous suspension of Pyrenophora teres spores (12,000 spores per ml). The spores are collected from a 12-day-old culture. The contaminated barley plants are incubated for 24 hours at about 20° C. and at 100% relative humidity, and then for 12 days at 80% relative humidity.
Grading is carried out 12 days after the contamination, in comparison with the control plants.

This note sets out measurements from patent publication US20100324102A1, “N-(3-PYRIDIN-2-YLPROPYL) BENZAMIDE DERIVATIVES AS FUNGICIDES” (BAYER CROPSCIENCE AG, priority 2006, published 2010).

Take `O=C(NCCCc1ncc(C(F)(F)F)cc1Cl)c1ccccc1C(F)(F)F` [Compound 1, N-{3-[3-chloro-5-(trifluoromethyl)pyridin-2-yl]propyl}-2-(trifluoromethyl)benzamide]: the protection entry with Alternaria brassicae and in the experiment with Pyrenophora teres was “at least 70%” in each case.
